Laboratory results from patent publication US7914821B2, “Pharmaceutical composition for prevention and/or treatment of bone loss” (KO DA Pharmaceuticals Co., Ltd., priority 2008, dated 2011).

Key:
[1] = system: Bone cells; assay: Mineralization in bone cells (Alizarin red-S); format: cell-based, rat; conditions: for mineralization of bone cells: 0.3, 1, 3, 10 μM, 14 days, differentiation medium, FIGS. 8C-8D; for increase of mineralization: 'at least' figure
Description: (§1) Rat primary osteoblast was isolated from the parietal bone of gestation day 18 embryos of Sprague-Dawley rats. After being slaughtered, the embryo rats were obtained from the uteruses of the rats, and calvarium was isolated from the embryo rats. Parietal bone was cut from the calvarium and digested by 0.1% collagenase for 20 minutes to release the bone cells from the bone tissue. The digestion step was repeated five times. The collected bone cells were cultured in α-MEM containing 1% penicillin-streptomycin and 10% FBS in a humidified atmosphere of 5 percent carbon dioxide. When cells were attached and confluence, they were sub-cultured, which was called “passage 2 (P2)”. The passage was for analogizing. 2 to 5 passage cells were used for the experiments.
Bone cells were cultured in 96-well Plate containing a differentiation medium (50 μg/ml vitamin C and 10 mM β-glycerophosphate) and treated with 0.3, 1, 3, and 10 μM of imperatorin and bergapten, respectively. The differentiation medium was refreshed every 3 days. 14 days after the cell culture, the bone cells were fixed with 75% ethanol for 30 minutes, and then treated with 40 mM Alizarin red-S at room temperature for 1 hr. After the addition of Alizarin red-S, 10% cetylpyridinium chloride was added, and then absorbance was measured at […]. The mineralization level in the control group which was treated with 0.1% DMSO was defined as 100%. Referring to FIGS. 8C-8D, imperatorin and bergapten both increased the mineralization of bone cells.

[2] = system: Bone cells; assay: ALP activity of bone cells; format: cell-based, rat; conditions: for ALP activity of the bone cells: 0.3, 1, 3, 10 μM, FIG. 8A
Excerpt: Rat primary osteoblast was isolated from the parietal bone of gestation day 18 embryos of Sprague-Dawley rats. After being slaughtered, the embryo rats were obtained from the uteruses of the rats, and calvarium was isolated from the embryo rats. […] The digestion step was repeated five times. […] When cells were attached and confluence, they were sub-cultured, which was called “passage 2 (P2)”. The passage was for analogizing. 2 to 5 passage cells were used for the experiments. Bone cells were treated with 0.3, 1, 3, and 10 μM of imperatorin and bergapten, respectively. After treatment, the osteoblast cells were digested in 0.2% NP-40 solution, and then centrifuged at 1500 g for 5 minutes. The ALP activity of the osteoblast cells was tested using an ALP kit (Roche Applied Science). […] Referring to FIG. 8A, imperatorin and bergapten both increased the ALP activity of the bone cells.

[3] = system: BMP-2 gene; assay: BMP-2 gene expression (RT-PCR); format: cell-based, rat; conditions: for BMP-2 mRNA level, dependence on concentration: 0.3, 1, 3, 10 μM, FIG. 9A; for BMP-2 mRNA level, dependence on treatment time: 1, 3, 6, 12 hrs, FIG. 9B
Description: as §1
Bone cells were cultured in 6-well Plate and cultured with 0.3, 1, 3, and 10 μM of imperatorin and bergapten for 1, 3, 6, and 12 hrs, respectively. After treatment, the cells were lysed with TRIzol reagent at room temperature for 5 minutes, and then collected in a centrifuge tube. 0.5 ml of chloroform was added to the centrifuge tube. After the addition of chloroform, the centrifuge tube was well mixed, and centrifuged at 14000×g for 15 minutes at room temperature to obtain a supernatant. The supernatant was mixed with isopropanol (0.25 ml) and then centrifuged at 14000×g at room temperature for 15 minutes to obtain a precipitated RNA. RNA was washed with 75% alcohol, centrifuged at 14000×g for 10 minutes, and dried to give a RNA pellet. The RNA pellet was dissolved in diethyl pyrocarbonate (DEPC) solution and then quantitated by measurement of OD260/280. BMP-2 gene expression (BMP-2 mRNA level) was detected by RT-PCR using Supperscript™ III reverstranscriptase and […] (Applied Biosystems). The BMP-2 mRNA level in the control group which was treated with 0.1% DMSO was defined as 100%.

[4] = system: ERK mutant cell (DN-ERK); assay: ALP activity in ERK mutant cell; format: cell-based; conditions: 10 μM; FIG. 11D
Description: Bone cells were cultured and treated with (1) 10 μM SB203580, (2) 10 μM PD98059, (3) 10 μM imperatori, (4) 10 μM bergapten, (5) 10 μM imperatorin+SB203580, (6) 10 μM bergapten+SB203580, (7) 10 μM imperatorin+PD98059 ? (8) 10 μM bergapten+PD98059 for 48 hrs. After treatment, the bone cells were lysed in 0.2% […] solution and centrifuged at 1500×g for 5 minutes. The supernatant was analyzed by an ALP kit such as described above to obtain the ALP activity. The ALP activity in the control group which was treated with 0.1% DMSO was defined as 100%. Referring to FIG. 11C, p38 inhibitor (SB203580) and ERK inhibitor (PD98059) suppressed the imperatorin and bergapten induced-ALP activity.
The same procedure carried out in Example 20 was repeated. The experiment group used alternative cells and treatment comprising: (1) DN-p38 cell, (2) DN-ERK cell, (3) DN-p38 cell+10 μM imperatorin, (4) DN-p38 cell+10 μM bergapten, (5) DN-ERK cell+10 μM imperatorin, (6) DN-ERK cell+10 μM bergapten, (7) normal bone cell+10 μM imperatorin, and (8) normal bone cell+10 μM bergapten. The ALP activity in the control group which was treated with 0.1% DMSO was defined as 100%. Referring to FIG. 11D, the ALP activity was not induced in p38 mutant cell (DN-p38) and ERK mutant cell (DN-ERK) by imperatorin and bergapten.

[5] = system: EPK protein; assay: Phosphorylation of EPK protein (western blot); format: cell-based, rat; conditions: 10 μM, 1, 3, 6, 12, 24 hrs; FIG. 10
Description: as §1
Bone cells was cultured in 6-well plate and treated with 10 μM of imperatorin and bergapten for 1, 3, 6, 12, and 24 hrs, respectively. […] Following incubation with the secondary antibody, the membrane was washed three times with PBST, and detected by an […] chemiluminescence using an ECL blotting substrate according to the manufacturer's instructions. […]

COc1c2ccoc2cc2oc(=O)ccc12 [bergapten]
mineralization of bone cells [1]: increased
increase of mineralization [1]: ≥ 105.0%
ALP activity of the bone cells [2]: increased
increase of alkaline phosphatase (ALP) activity ([2]; 'at least' figure): ≥ 80.0%
BMP-2 mRNA level, dependence on concentration [3]: increased according to the increase of the concentration
BMP-2 mRNA level, dependence on treatment time [3]: increased according to the increase of the treatment time
ALP activity in ERK mutant cell (DN-ERK) [4]: not induced
phosphorylation of EPK protein [5]: induced

CC(C)=CCOc1c2occc2cc2ccc(=O)oc12 [imperatorin]
mineralization of bone cells [1]: increased
increase of mineralization [1]: ≥ 110.0%
ALP activity of the bone cells [2]: increased
increase of alkaline phosphatase (ALP) activity ([2]; 'at least' figure): ≥ 6.0%
increase of alkaline phosphatase (ALP) activity ([2]; 'preferably ... at least' figure): at least 95%
BMP-2 mRNA level, dependence on concentration [3]: increased according to the increase of the concentration
BMP-2 mRNA level, dependence on treatment time [3]: increased according to the increase of the treatment time
ALP activity in ERK mutant cell (DN-ERK) [4]: not induced
phosphorylation of EPK protein [5]: induced
